Values quoted from earlier work as cited in patent US20200197351A1, “TRIVALENT AND DIVALENT CATIONS AS ADMINISTRABLE AGENTS FOR INCREASED PROCESSIVITY AND IMPROVED FIDELITY OF REVERSE TRANSCRIPTASE IN TELOMERASE AND IN NUCLEIC ACID POLYMERASES” (priority 2018, published 2020).

Conditions: detailed testing in mammals

For `[Sc]` [Scandium], the toxicity is listed as “little or no toxicity”.
